Values of other authors in paper PMC8492600 (Cell Systems, 2021).

What was measured:
HLA-B*40:01 = HLA-B*40:01 (Homo sapiens, UniProt P01889, A65T/A93T/A95T/D138N/D98Y/E176V/E69K/N87E/Q56L/Q94N/R180L/S121R/S35A/S48T/T167S/V36M/W171L/Y33H/Y91S)
HLA-A*02:01 = HLA-A*02:01 (Homo sapiens, UniProt P04439, D140Y/D185E/D98H/E176V/E277Q/G131W/G231S/I119V/I121R/I166T/I218V/L300P/L318F/N151K/N90K/P208A/P217A/Q86G/Q94H/R138H/R169H/T345S)

Sequence | binding of the mutated epitope to HLA-B*40:01 (HLA-B*40:01) | binding of the mutated epitope to HLA-A*02:01 (HLA-A*02:01)
MKVTPSGTWL | lose binding | –
GFMWLSYFI | – | lose binding
